Test results taken from ChEMBL document CHEMBL4052667 (Bioorg Med Chem, 2017).

Key:
[1] = biological target: Poly [ADP-ribose] polymerase 1 (Homo sapiens, UniProt P09874); test: Inhibition of recombinant full length human N-terminal GST-tagged PARP1 expressed in baculovirus infected Sf9 cells using biotinylated substrate after 1 hr by UV/Vis spectrophotometric analysis
[2] = biological target: Poly [ADP-ribose] polymerase 2 (Homo sapiens, UniProt Q9UGN5); test: Inhibition of recombinant human N-terminal GST-tagged PARP2 (2 to 583 residues) expressed in baculovirus infected Sf9 cells using biotinylated substrate after 1 hr by UV/Vis spectrophotometric analysis
[3] = biological target: Histone deacetylase 1 (Homo sapiens, UniProt Q13547); test: Inhibition of HDAC1 (unknown origin) using acetylated peptide substrate preincubated for 15 mins followed by substrate addition measured after 60 mins by fluorescence analysis
[4] = biological target: T1, Protein deacetylase HDAC6 (Homo sapiens, UniProt Q9UBN7); test: Inhibition of HDAC6 (unknown origin) using acetylated peptide substrate preincubated for 15 mins followed by substrate addition measured after 60 mins by fluorescence analysis
T1 sequence (Q9UBN7 whole entry): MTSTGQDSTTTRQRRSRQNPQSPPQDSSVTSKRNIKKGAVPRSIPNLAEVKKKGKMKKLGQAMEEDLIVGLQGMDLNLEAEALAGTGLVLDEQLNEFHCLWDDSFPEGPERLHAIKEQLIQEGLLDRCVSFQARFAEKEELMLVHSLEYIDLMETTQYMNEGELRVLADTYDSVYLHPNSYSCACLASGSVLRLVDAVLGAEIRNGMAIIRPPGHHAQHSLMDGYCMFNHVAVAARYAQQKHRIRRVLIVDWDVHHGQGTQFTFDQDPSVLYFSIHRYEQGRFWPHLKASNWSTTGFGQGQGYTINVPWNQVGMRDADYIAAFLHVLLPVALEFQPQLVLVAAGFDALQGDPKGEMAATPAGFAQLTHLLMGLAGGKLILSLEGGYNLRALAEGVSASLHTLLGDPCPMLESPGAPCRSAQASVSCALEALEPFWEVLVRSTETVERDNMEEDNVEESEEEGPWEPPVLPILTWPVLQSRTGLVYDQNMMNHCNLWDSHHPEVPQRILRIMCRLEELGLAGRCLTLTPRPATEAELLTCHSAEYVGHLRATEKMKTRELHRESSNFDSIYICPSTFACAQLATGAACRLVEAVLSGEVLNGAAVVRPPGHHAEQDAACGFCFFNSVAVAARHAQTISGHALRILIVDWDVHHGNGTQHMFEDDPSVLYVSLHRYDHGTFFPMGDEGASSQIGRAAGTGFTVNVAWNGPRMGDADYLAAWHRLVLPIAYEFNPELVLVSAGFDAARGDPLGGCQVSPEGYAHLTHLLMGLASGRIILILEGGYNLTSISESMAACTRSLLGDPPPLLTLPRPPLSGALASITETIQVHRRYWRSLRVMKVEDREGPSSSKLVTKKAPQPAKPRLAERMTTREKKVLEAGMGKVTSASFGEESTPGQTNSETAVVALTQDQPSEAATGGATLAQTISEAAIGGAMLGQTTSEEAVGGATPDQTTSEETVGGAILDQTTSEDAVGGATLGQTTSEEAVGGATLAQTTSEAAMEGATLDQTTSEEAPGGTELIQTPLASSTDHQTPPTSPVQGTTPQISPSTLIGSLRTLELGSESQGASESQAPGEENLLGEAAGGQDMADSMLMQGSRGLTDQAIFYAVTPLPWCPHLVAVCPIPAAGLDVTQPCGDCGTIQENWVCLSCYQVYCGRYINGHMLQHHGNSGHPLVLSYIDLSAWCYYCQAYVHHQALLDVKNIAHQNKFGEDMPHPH

[5] = tested on: T47D; test: Antiproliferative activity against human T47D cells after 72 hrs by MTT assay; format: functional, cell-based
[6] = tested on: MCF7; test: Antiproliferative activity against human MCF7 cells after 72 hrs by MTT assay; format: functional, cell-based; details: MCF7, 72 h
[7] = tested on: MDA-MB-231; test: Antiproliferative activity against human MDA-MB-231 cells after 72 hrs by MTT assay; format: functional, cell-based; details: MDA-MB-231, 72 h
[8] = tested on: HCC827; test: Antiproliferative activity against human HCC827 cells after 72 hrs by MTT assay; format: functional, cell-based; details: HCC827, 72 h
[9] = tested on: HeLa; test: Antiproliferative activity against human HeLa cells after 72 hrs by MTT assay; format: functional, cell-based
[10] = tested on: K562; test: Antiproliferative activity against human K562 cells after 72 hrs by MTT assay; format: functional, cell-based; details: K562, 72 h
[11] = tested on: U-937; test: Antiproliferative activity against human U937 cells after 72 hrs by MTT assay; format: functional, cell-based; details: U-937, 72 h
[12] = tested on: MDA-MB-231; test: Antiproliferative activity against human MDA-MB-231 cells after 5 days by MTT assay; format: functional, cell-based; details: MDA-MB-231, 120 h
[13] = tested on: MCF-10A; test: Antiproliferative activity against human MCF10A cells after 72 hrs by MTT assay; format: cell-based
[14] = Antiproliferative activity against human MCF10A cells at less than 50 uM after 72 hrs by MTT assay relative to control; format: cell-based, MCF-10A

Sequence of Poly [ADP-ribose] polymerase 1 (P09874 whole entry, the tested form may be a part): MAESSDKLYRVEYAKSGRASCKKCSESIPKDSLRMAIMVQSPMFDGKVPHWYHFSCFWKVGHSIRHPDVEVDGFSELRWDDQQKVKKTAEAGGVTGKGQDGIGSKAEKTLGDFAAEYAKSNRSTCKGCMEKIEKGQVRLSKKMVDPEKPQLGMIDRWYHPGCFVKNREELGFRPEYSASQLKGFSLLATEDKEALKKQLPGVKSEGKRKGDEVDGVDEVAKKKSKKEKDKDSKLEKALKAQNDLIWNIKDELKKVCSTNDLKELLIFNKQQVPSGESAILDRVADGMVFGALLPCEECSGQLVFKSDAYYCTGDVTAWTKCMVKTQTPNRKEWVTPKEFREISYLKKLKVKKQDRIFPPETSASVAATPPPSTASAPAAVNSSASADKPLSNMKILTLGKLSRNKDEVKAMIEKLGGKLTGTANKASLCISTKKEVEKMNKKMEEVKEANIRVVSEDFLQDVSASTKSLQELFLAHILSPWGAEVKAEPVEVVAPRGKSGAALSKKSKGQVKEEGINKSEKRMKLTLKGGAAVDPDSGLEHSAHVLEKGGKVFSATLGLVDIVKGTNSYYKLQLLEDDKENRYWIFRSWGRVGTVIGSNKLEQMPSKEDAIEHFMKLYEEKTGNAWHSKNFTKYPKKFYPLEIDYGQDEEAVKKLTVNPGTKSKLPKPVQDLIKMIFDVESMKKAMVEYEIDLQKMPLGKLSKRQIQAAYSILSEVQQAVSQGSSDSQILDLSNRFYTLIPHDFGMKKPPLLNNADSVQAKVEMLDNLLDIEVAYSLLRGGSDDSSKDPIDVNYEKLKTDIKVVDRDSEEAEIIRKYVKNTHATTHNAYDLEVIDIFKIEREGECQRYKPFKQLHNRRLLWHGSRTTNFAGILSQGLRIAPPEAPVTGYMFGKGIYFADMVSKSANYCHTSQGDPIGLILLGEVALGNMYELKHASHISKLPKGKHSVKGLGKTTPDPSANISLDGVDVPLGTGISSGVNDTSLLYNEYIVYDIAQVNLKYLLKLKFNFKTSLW
Sequence of Poly [ADP-ribose] polymerase 2 (Q9UGN5 whole entry, the tested form may be a part): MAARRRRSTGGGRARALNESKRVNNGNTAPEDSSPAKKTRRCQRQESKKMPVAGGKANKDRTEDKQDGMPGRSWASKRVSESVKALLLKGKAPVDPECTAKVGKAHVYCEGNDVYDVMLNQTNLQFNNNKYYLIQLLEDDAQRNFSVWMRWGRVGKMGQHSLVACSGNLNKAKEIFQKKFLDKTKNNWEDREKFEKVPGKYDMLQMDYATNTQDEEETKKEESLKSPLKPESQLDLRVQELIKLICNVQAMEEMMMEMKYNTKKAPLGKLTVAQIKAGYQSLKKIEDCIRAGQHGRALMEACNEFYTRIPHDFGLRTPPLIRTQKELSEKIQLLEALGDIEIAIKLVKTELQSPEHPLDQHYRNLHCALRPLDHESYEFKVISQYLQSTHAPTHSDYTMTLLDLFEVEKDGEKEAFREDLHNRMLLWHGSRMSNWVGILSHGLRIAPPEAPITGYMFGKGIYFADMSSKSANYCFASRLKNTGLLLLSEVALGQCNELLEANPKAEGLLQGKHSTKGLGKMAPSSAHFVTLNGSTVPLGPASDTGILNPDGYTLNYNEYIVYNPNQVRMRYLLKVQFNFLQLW
Sequence of Histone deacetylase 1 (Q13547 whole entry): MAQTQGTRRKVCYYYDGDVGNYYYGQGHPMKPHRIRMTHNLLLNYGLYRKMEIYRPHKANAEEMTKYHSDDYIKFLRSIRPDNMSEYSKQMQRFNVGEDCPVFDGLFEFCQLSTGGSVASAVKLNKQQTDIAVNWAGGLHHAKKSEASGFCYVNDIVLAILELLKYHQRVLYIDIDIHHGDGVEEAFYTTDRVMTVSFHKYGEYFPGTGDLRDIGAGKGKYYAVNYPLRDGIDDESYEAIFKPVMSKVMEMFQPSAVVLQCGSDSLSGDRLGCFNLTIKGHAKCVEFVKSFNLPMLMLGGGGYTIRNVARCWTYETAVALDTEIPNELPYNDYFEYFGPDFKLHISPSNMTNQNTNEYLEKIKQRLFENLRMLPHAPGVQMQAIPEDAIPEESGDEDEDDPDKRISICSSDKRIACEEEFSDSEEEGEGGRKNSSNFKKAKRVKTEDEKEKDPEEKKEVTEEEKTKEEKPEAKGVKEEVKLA

Q: For `O=C(Cc1ccc(CN2CCN(C(=O)c3cc(Cc4n[nH]c(=O)c5ccccc45)ccc3F)CC2)cc1)NO`, which IC50 [1] is on record?
A: Its IC50 is 0.0204 µM.

Q: And the IC50 [2]?
A: Its IC50 is 0.0491 µM.

Q: What about the IC50 [3] of the same compound?
A: Its IC50 is 0.912 µM.

Q: And the IC50 [4]?
A: The IC50 was 0.129 µM.

Q: What about the IC50 [5] of the same compound?
A: The IC50 was greater than 50 µM.

Q: And the IC50 [6]?
A: The IC50 was 41.8 µM.

Q: What about the IC50 [7] of the same compound?
A: The IC50 was 57.9 µM.

Q: What about the IC50 [8] of the same compound?
A: Its IC50 is 32.1 µM.

Q: What about the IC50 [9] of the same compound?
A: The IC50 was greater than 50 µM.

Q: And the IC50 [10]?
A: Its IC50 is greater than 50 µM.

Q: And the IC50 [11]?
A: Its IC50 is 31 µM.

Q: And the IC50 [12]?
A: Its IC50 is 35.4 µM.

Q: And the IC50 [13]?
A: The IC50 was greater than 50 µM.

Q: What about the inhibition at 72 h [14] of the same compound?
A: Its inhibition at 72 h is 20 to 30%.
